Experiments:
BACE1 = target: T1, BACE1 (Homo sapiens, UniProt P56817); experiment: In vitro BACE1 FRET enzyme assay; format: biochemical; conditions: BACE1 FRET assay; for inhibition at 10 µM: 10 μM compound, read-out: Inhibition Rate at 10 μM (%)
T1 construct: purchased PanVera Co. (Invitrogen, USA)
Protocol: The BACE1 FRET assay kit was purchased from the PanVera Co. (Invitrogen, USA). The assay was carried out according to the supplied manual with modifications. […] The fluorescence intensity was measured with a TECAN infinite 200 microplate reader for 60 min at 25 °C in the dark. […] The percent inhibition (%) was obtained by the following equation: Inhibition % = (1 −SS/SC) × 100%, where SC is the slope of fluorescence change of the control (enzyme, buffer, and substrate) during 60 min, and SS is the slope of fluorescence change of the tested samples (enzyme, sample solution, and substrate) during 60 min of measurement. IC50 values were calculated from the nonlinear curve fitting of percentage inhibition against inhibitor concentration using Prism 3.0 software (GraphPad Software, San Diego, CA, USA).

MTT cytotoxicity assay = format: cell-based; conditions: human, 24 h exposure
Protocol: It is crucial for the BACE1 inhibitors to exert their activities at sub-toxic concentration, and thus their cytotoxicity was assessed in HEK293 cells by 3-[4,5-dimethylthiazol-2-yl]-2,5-diphenyl-tetrazolium bromide (MTT) assays (Table 5). […] Unfortunately, there was no obvious relationship between the structures and their cytotoxicity.
The cytotoxicity was examined by using 3-[4,5-dimethylthiazol-2-yl]-2,5-diphenyl-tetrazolium bromide (MTT) assay. HEK293T cells were seeded with complete DMEM into 96-well plates ([…], 100 µL/well), incubated at 37 °C in a humidified atmosphere with 5% CO2 for 24 h. All the compounds were diluted with the phenol red-free DMEM at a specific concentration. After 24 h of exposure to different concentrations of compound, the supernatant was removed and then 20% (v/v) MTT (5 mg/mL) diluted with fresh culture medium was added into each well and incubated for 4 h. Cells were lysed with 100 μL dimethyl sulfoxide (DMSO) and shaken for 10 min at room temperature. The absorbance in each well was detected at a wavelength of 490 nm using a Universal Microplate Reader (ELX 800 lv, BIO-TEK Instruments, Inc., Winooski, VT, USA).

[1] = HEK293 cells (method text: HEK293T)

T1 sequence (P56817 46-501): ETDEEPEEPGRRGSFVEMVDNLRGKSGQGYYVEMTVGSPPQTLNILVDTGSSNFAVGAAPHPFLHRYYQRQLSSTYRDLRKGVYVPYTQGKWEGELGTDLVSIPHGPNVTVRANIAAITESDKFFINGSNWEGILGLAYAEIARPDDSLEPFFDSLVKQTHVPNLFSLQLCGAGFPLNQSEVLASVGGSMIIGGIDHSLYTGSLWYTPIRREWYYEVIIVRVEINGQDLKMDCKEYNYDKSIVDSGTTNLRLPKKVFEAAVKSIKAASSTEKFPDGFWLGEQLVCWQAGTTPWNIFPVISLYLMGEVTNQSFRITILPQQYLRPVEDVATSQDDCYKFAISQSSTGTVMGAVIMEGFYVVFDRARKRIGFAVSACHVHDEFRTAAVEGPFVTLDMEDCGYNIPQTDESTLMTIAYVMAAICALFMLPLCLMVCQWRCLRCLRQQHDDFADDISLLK

inhibition at 10 µM (BACE1) [%] | IC50 (BACE1) [µM] | Structure (SMILES) | IC50 at 24 h (MTT cytotoxicity assay; [1]) [µM] | IC50 at 24 h (MTT cytotoxicity assay; HEK293 cells (method text: HEK293T cells)) [µM]
36.1 ± 2.6 |  | O=C(/C=C/c1ccc(O)cc1)OCCCCCCCCOc1cc(O)c2c(=O)cc(-c3ccc(O)c(O)c3)oc2c1 [Compound 5e, (E)-8-((2-(3,4-dihydroxyphenyl)-5-hydroxy-4-oxo-4H-chromen-7-yl)oxy)octyl 3-(4-hydroxyphenyl)acrylate] |  | 
17.1 ± 6 |  | CC(=O)Oc1ccc(/C=C/C(=O)OCCOc2ccc(-c3cc(=O)c4c(O)cc(O)cc4o3)cc2)cc1 [Compound 4g] |  | 
57.5 ± 7.5 | 2.49 ± 0.32 | O=C(C=Cc1ccccc1)OCCOc1cc(O)c2c(=O)cc(-c3ccc(O)c(O)c3)oc2c1 [Compound 7a, 2-((2-(3,4-dihydroxyphenyl)-5-hydroxy-4-oxo-4H-chromen-7-yl)oxy)ethyl cinnamate] | > 100 | 
41.4 ± 4.4 |  | O=C(/C=C/c1ccc(O)cc1)Oc1cc(O)c2c(=O)cc(-c3ccc(O)c(O)c3)oc2c1 [Compound 5g] | 4.21 | 
39.6 ± 12.5 |  | O=C(/C=C/c1ccc(O)cc1)OCCOc1cccc(-c2cc(=O)c3c(O)cc(O)cc3o2)c1 [Compound 4d] |  | 
56.7 ± 4.4 | 4.39 ± 0.34 | O=C(CCc1ccc(O)cc1)OCCOc1cc(O)c2c(=O)cc(-c3ccc(O)c(O)c3)oc2c1 [Compound 7p, 2-((2-(3,4-dihydroxyphenyl)-5-hydroxy-4-oxo-4H-chromen-7-yl)oxy)ethyl 3-(4-hydroxyphenyl)propanoate] | 90 | 
20.5 ± 4.4 |  | O=C(/C=C/c1ccc(O)cc1)OCCOc1cc(O)c2c(=O)cc(-c3ccccc3)oc2c1 [Compound 6] | 28.3 | 
51.9 ± 1.9 |  | O=C(OCCOc1cc(O)c2c(=O)cc(-c3ccc(O)c(O)c3)oc2c1)c1ccc(O)cc1 [Compound 7o, 2-((2-(3,4-dihydroxyphenyl)-5-hydroxy-4-oxo-4H-chromen-7-yl)oxy)ethyl 4-hydroxybenzoate] | 10.3 | 
59.5 ± 7.1 | 0.37 ± 0.25 | O=C(/C=C/c1ccoc1)OCCOc1cc(O)c2c(=O)cc(-c3ccc(O)c(O)c3)oc2c1 [Compound 7l, (E)-2-((2-(3,4-dihydroxyphenyl)-5-hydroxy-4-oxo-4H-chromen-7-yl)oxy)ethyl 3-(furan-3-yl)acrylate] | 9.51 | 
 |  | O=C(/C=C/c1ccc(O)c(O)c1)OCCOc1cc(O)c2c(=O)cc(-c3ccc(O)c(O)c3)oc2c1 [Compound 7d] |  | 16.7
42.4 ± 3.2 |  | O=C(/C=C/c1ccc(O)cc1)OCCCCCCOc1cc(O)c2c(=O)cc(-c3ccc(O)c(O)c3)oc2c1 [Compound 5d, (E)-6-((2-(3,4-dihydroxyphenyl)-5-hydroxy-4-oxo-4H-chromen-7-yl)oxy)hexyl 3-(4-hydroxyphenyl)acrylate] |  | 
62.6 ± 6.4 | 20.6 ± 1.44 | O=C(/C=C/c1ccc(O)cc1)OCCCCCOc1cc(O)c2c(=O)cc(-c3ccc(O)c(O)c3)oc2c1 [Compound 5c, (E)-5-((2-(3,4-dihydroxyphenyl)-5-hydroxy-4-oxo-4H-chromen-7-yl)oxy)pentyl 3-(4-hydroxyphenyl)acrylate] |  | 
36 ± 4.2 |  | O=C(/C=C/c1ccc(O)cc1)OCCOc1ccc(-c2cc(=O)c3c(O)cc(O)cc3o2)cc1 [Compound 4h] |  | 
59.2 ± 6.3 | 6.78 ± 0.83 | O=C(/C=C/c1ccc(O)cc1)OCCOc1c(-c2ccc(O)c(O)c2)oc2cc(O)cc(O)c2c1=O [Compound 4j, 2-((2-(3,4-dihydroxyphenyl)-5,7-dihydroxy-4-oxo-4H-chromen-3-yl)oxy)ethyl(E)-3-(4-hydroxyphenyl)acrylate] |  | 
1.9 ± 10.3 |  | CC(=O)Oc1ccc(/C=C/C(=O)Oc2ccc(-c3cc(=O)c4c(O)cc(O)cc4o3)cc2)cc1 [Compound 4e] |  | 
58.2 ± 3.3 | 27.8 ± 1.34 | O=C(/C=C/c1ccc(O)cc1)OCCCCCCCCCCOc1cc(O)c2c(=O)cc(-c3ccc(O)c(O)c3)oc2c1 [Compound 5f, (E)-10-((2-(3,4-dihydroxyphenyl)-5-hydroxy-4-oxo-4H-chromen-7-yl)oxy)decyl 3-(4-hydroxyphenyl)acrylate] |  | 
31.8 ± 5.25 |  | CC(=O)Oc1ccc(/C=C/C(=O)OCCOc2cccc(-c3cc(=O)c4c(O)cc(O)cc4o3)c2)cc1 [Compound 4c] |  | 
14.8 ± 7.35 |  | O=C(/C=C/c1ccc(O)cc1)Oc1cccc(-c2cc(=O)c3c(O)cc(O)cc3o2)c1 [Compound 4b] |  | 
23.9 ± 2.95 |  | CC(=O)Oc1ccc(/C=C/C(=O)Oc2cccc(-c3cc(=O)c4c(O)cc(O)cc4o3)c2)cc1 [Compound 4a] |  | 
60.6 ± 5.3 | 12.9 ± 1.14 | O=C(/C=C/c1ccc(O)cc1)OCCOc1ccc2oc(-c3ccc(O)c(O)c3)cc(=O)c2c1 [Compound 4k] |  | 
29.4 ± 5.5 |  | O=C(/C=C/c1ccc(O)cc1)Oc1ccc(-c2cc(=O)c3c(O)cc(O)cc3o2)cc1 [Compound 4f] |  | 
37.6 ± 4.4 |  | CC(C)(C)c1ccc(/C=C/C(=O)OCCOc2cc(O)c3c(=O)cc(-c4ccc(O)c(O)c4)oc3c2)cc1 [Compound 7j, (E)-2-((2-(3,4-dihydroxyphenyl)-5-hydroxy-4-oxo-4H-chromen-7-yl)oxy)ethyl 3-(4-(tert-butyl)phenyl)acrylate] | 20.3 | 
68.1 ± 5.8 | 10.4 ± 1.02 | O=C(/C=C/c1ccc(O)cc1)OCCCCOc1cc(O)c2c(=O)cc(-c3ccc(O)c(O)c3)oc2c1 [Compound 5b, (E)-4-((2-(3,4-dihydroxyphenyl)-5-hydroxy-4-oxo-4H-chromen-7-yl)oxy)butyl 3-(4-hydroxyphenyl)acrylate] |  | 
81.4 ± 3.8 | 5.26 ± 0.72 | O=C(/C=C/c1ccc(O)cc1)OCCCOc1cc(O)c2c(=O)cc(-c3ccc(O)c(O)c3)oc2c1 [Compound 5a, (E)-3-((2-(3,4-dihydroxyphenyl)-5-hydroxy-4-oxo-4H-chromen-7-yl)oxy)propyl 3-(4-hydroxyphenyl)acrylate] |  | 
28.5 ± 7.1 |  | O=C(/C=C/c1ccc(F)cc1)OCCOc1cc(O)c2c(=O)cc(-c3ccc(O)c(O)c3)oc2c1 [Compound 7e, (E)-2-((2-(3,4-dihydroxyphenyl)-5-hydroxy-4-oxo-4H-chromen-7-yl)oxy)ethyl 3-(4-fluorophenyl)acrylate] | 16.8 | 
22.2 ± 7.1 |  | O=C(/C=C/C1CCCCC1)OCCOc1cc(O)c2c(=O)cc(-c3ccc(O)c(O)c3)oc2c1 [Compound 7m, (E)-2-((2-(3,4-dihydroxyphenyl)-5-hydroxy-4-oxo-4H-chromen-7-yl)oxy)ethyl 3-cyclohexylacrylate] | 14.4 | 
53.8 ± 4.4 | 6.58 ± 1.16 | CN(C)c1ccc(/C=C/C(=O)OCCOc2cc(O)c3c(=O)cc(-c4ccc(O)c(O)c4)oc3c2)cc1 [Compound 7h, (E)-2-((2-(3,4-dihydroxyphenyl)-5-hydroxy-4-oxo-4H-chromen-7-yl)oxy)ethyl 3-(4-(dimethylamino)phenyl)acrylate] | > 100 | 
21.3 ± 7.1 |  | O=C(/C=C/c1ccc(Cl)cc1)OCCOc1cc(O)c2c(=O)cc(-c3ccc(O)c(O)c3)oc2c1 [Compound 7f, (E)-2-((2-(3,4-dihydroxyphenyl)-5-hydroxy-4-oxo-4H-chromen-7-yl)oxy)ethyl 3-(4-chlorophenyl)acrylate] | 9.97 | 
73.9 ± 7.1 | 0.96 ± 1.55 | O=C(/C=C/c1ccc([N+](=O)[O-])cc1)OCCOc1cc(O)c2c(=O)cc(-c3ccc(O)c(O)c3)oc2c1 [Compound 7g, (E)-2-((2-(3,4-dihydroxyphenyl)-5-hydroxy-4-oxo-4H-chromen-7-yl)oxy)ethyl 3-(4-nitrophenyl)acrylate] | 21.8 | 
37 ± 8.6 |  | O=C(/C=C/c1ccc(O)cc1)OCCOCCOc1ccc(-c2cc(=O)c3c(O)cc(O)cc3o2)cc1 [Compound 4i] |  | 

Structure (SMILES) | inhibition at 10 µM (BACE1) [%] | IC50 (BACE1) [µM] | IC50 at 24 h (MTT cytotoxicity assay; [1]) [µM] | IC50 at 24 h (MTT cytotoxicity assay; HEK293 cells (method text: HEK293T cells)) [µM]
CC(=O)Oc1ccc(/C=C/C(=O)OCCOc2cc(O)c3c(=O)cc(-c4ccc(O)c(O)c4)oc3c2)cc1 [Compound 7q, (E)-2-((2-(3,4-dihydroxyphenyl)-5-hydroxy-4-oxo-4H-chromen-7-yl)oxy)ethyl 3-(4-acetoxyphenyl)acrylate] | 25.7 ± 4.6 |  | > 100 | 
